From publication PMC8491704, “Pharmacokinetic study of Tangwang Mingmu granule for the management of diabetic retinopathy based on network pharmacology” (Pharmaceutical Biology, 2021)
Read-outs that look alike come from different tables or passages of the source. Blank lines part the entries; values can stand above or below the molecule they belong to.

What was measured:
[1] = Pharmacokinetic study in SD rats after oral administration of TWMM (UPLC-QQQ-MS of plasma); type: in vivo, Sprague-Dawley (SD) rats; conditions: oral TWMM 9.6 g/kg
Protocol: Chromatographic separation was performed using an ACQUITY UPLC H-Class system equipped with a 1.8 μm HSS T3 analytical column (100 mm × 2.1 i.d., Waters Corporation, Milford, USA). […] ESI source was set to negative ionisation mode while the analysis was performed using multiple reaction monitorin. Ion spray voltage (3000 V), capillary temperature (450 °C), and the source parameters of the nine compounds are shown in Table 2.
The data obtained from the UPLC/Q-Orbitrap MS was imported into Xcalibur 4.0 software for analysis. Furthermore, the constituents acquired using GCMS-QP 2010 were profiled by comparison using the National Institute of Standards and Technology (NIST) database. The pharmacokinetic data were processed through MassLynx 4.1, and DAS 2.0 software was used to calculate the pharmacokinetic parameters according to the compartment model.
Six male SD rats (average weight: 220 ± 10 g) were acquired from Beijing Vital-River Laboratory Animal Technology Co., Ltd. All rats were acclimatized to an environmentally controlled laboratory for a week. Following this period, the rats were exposed to fasting conditions for 12 h but were allowed free access to water before the experiment. The rats were orally administered TWMM at a dose of 9.6 g/kg. Blood samples (300 µL) were collected into heparinized centrifuge tubes from the fossa orbitalis at pre-dose and 0.03, 0.08, 0.17, 0.25, 0.5, 1, 2, 4, 8, 12, 24, and 36 h intervals. The samples were immediately centrifuged at 6000 g for 10 min at 4 °C and the supernatants were transferred to clean centrifuge tubes.
Each 100 µL plasma sample was mixed with 20 µL of methanol, 20 µL of IS (5 µg/mL), and 600 µL acetonitrile. The mixtures were centrifuged at 15,000 g for 10 min at 4 °C after being vortexed for 3 min. The obtained supernatants were transferred to clean 1.5 mL centrifuge tubes, followed by evaporation under a milt nitrogen stream. Next, the obtained residues were individually redissolved in 100 µL of methanol and centrifuged at 15,000 g for 10 min at 4 °C after vortexed for 3 min. Lastly, 10 µL of individual supernatant was injected for analysis.

[2] = Stability of QC samples of 8 compounds in rat plasma (25 °C 4 h, autosampler 12 h, three freeze-thaw cycles, −80 °C 7 d); type: in vitro ADME; conditions: rat, plasma; for Stability in rat plasma, Long term (7 day, –80 °C), Measured: 168 h
Protocol: The calibration curves were assessed at eight concentration levels using the correlation coefficient (r). The lower limit of quantification (LLOQ) could fulfil the analytical requirements and achieved reliable accuracy and precision with a signal-to-noise ratio (S/N) ≥ 10. To determine intra- and inter-day precision and accuracy, six replicate quality control (QC) samples at three concentrations were prepared. Inter- and intra-day precision was evaluated by determining relative standard deviation (RSD) values, while accuracy was expressed in terms of the relative error (RE). The extraction recoveries were determined using three concentration levels and calculated by comparing the peak area of extracted samples with post-extracted spiked samples. Subsequently, matrix effects were assessed using the peak area of post-extracted spiked samples contrasted with QC samples at the three concentration levels. The stability test of QC samples at the three concentration levels was as follows: storage at 25 °C for 4 h, storage in an autosampler for 12 h, freeze-thaw cycle for three times, and storage at −80 °C for 7 d.
The stability tests were carried out under three freeze-thaw cycles, at 25 °C for 4 h, in an autosampler for 12 h, and at −80 °C for 7 d.

half-life ([1]; male, Sprague-Dawley, rat, n = 6): 2.08 ± 0.38 h
AUC(0-t) ([1]; male, Sprague-Dawley, rat, n = 6, read-out: AUC (0–36)): 175 ± 40.8 ng·h/mL
Cmax ([1]; male, Sprague-Dawley, rat, n = 6, read-out: Cmax): 45.5 ± 21.2 ng/mL
MRT last ([1]; male, Sprague-Dawley, rat, n = 6, read-out: MRT (0–36)): 8.9 ± 3.44 h
MRT inf ([1]; male, Sprague-Dawley, rat, n = 6, read-out: MRT (0–∞)): 8.91 ± 3.44 h
AUC(0-inf) ([1]; male, Sprague-Dawley, rat, read-out: areas under the concentration-time curve (AUC0–∞)): 175 ± 40.8 ng·h/mL
Tmax ([1]; n = 6): 0.25 ± 0.14 h
Tmax ([1]; n = 6, listed as verbascoside): ≤ 1 h
t1/2 ([1]; n = 6, listed as verbascoside): rapid elimination
Stability in rat plasma, Three freeze/thaw cycles, Measured ([2]; 2 ng/mL): 2.0 ± 0.1 ng/mL
Stability in rat plasma, Three freeze/thaw cycles, Measured ([2]; 20 ng/mL): 21.8 ± 1.9 ng/mL
Stability in rat plasma, Three freeze/thaw cycles, Measured ([2]; 400 ng/mL): 416.4 ± 17.6 ng/mL
Stability in rat plasma, Room temperature (4 h, 25 °C), Measured ([2]; 2 ng/mL): 2.2 ± 0.1 ng/mL
Stability in rat plasma, Room temperature (4 h, 25 °C), Measured ([2]; 20 ng/mL): 19.6 ± 1.0 ng/mL
Stability in rat plasma, Room temperature (4 h, 25 °C), Measured ([2]; 400 ng/mL): 427.6 ± 13.8 ng/mL
Stability in rat plasma, Autosampler (12 h, 4 °C), Measured ([2]; 2 ng/mL): 2.1 ± 0.2 ng/mL
Stability in rat plasma, Autosampler (12 h, 4 °C), Measured ([2]; 20 ng/mL): 23.8 ± 1.8 ng/mL
Stability in rat plasma, Autosampler (12 h, 4 °C), Measured ([2]; 400 ng/mL): 402.4 ± 19.1 ng/mL
Stability in rat plasma, Long term (7 day, –80 °C), Measured ([2]; 2 ng/mL): 1.9 ± 0.2 ng/mL
Stability in rat plasma, Long term (7 day, –80 °C), Measured ([2]; 20 ng/mL): 21.3 ± 1.8 ng/mL
Stability in rat plasma, Long term (7 day, –80 °C), Measured ([2]; 400 ng/mL): 430.0 ± 6.2 ng/mL
Molecule: C[C@@H]1O[C@@H](O[C@@H]2[C@@H](O)[C@H](OCCc3ccc(O)c(O)c3)O[C@H](CO)[C@H]2OC(=O)/C=C/c2ccc(O)c(O)c2)[C@H](O)[C@H](O)[C@H]1O [Verbascoside]

areas under the concentration-time curve (AUC0–∞) [1]: 53.4 ± 32.2 ng·h/mL
AUC (0–36) ([1]; n = 6): 46.59 ± 9.58 ng·h/mL
AUC (0–∞) ([1]; n = 6): 53.37 ± 32.17 ng·h/mL
Cmax ([1]; n = 6): 14.25 ± 3.67 ng/mL
MRT (0–36) ([1]; n = 6): 11.42 ± 1.29 h
MRT (0–∞) ([1]; n = 6): 15.62 ± 10.83 h
Tmax ([1]; n = 6): 0.38 ± 0.31 h
t1/2 ([1]; n = 6): 29.15 ± 12.65 h
Tmax ([1]; n = 6, listed as jaspolyside): ≤ 1 h
Molecule: Jaspolyside
